Measured values: patent US11400080B2, “Use of sirolimus to treat exudative age-related macular degeneration with persistent edema” (Santen Pharmaceutical Co., Ltd., priority 2016, dated 2022)

Key:
[1] = test system: persistent edema due to neovascular AMD; assay: Example 2: randomized, subject-masked trial of intravitreal sirolimus plus anti-VEGF (aflibercept) versus anti-VEGF alone (OCT CST and BCVA); assay type: in vivo, human
Excerpt: This study was a single-center, randomized, subject-masked trial over the course of […] with eleven scheduled visits. Study Population. Twenty human patients, who were 50 years of age or older at baseline were recruited according to the following inclusion and exclusion criteria. If both eyes met all of the inclusion/exclusion criteria the eye with the best potential for visual improvement (worse BCVA) at baseline was selected as the study eye. If both eyes met all of the inclusion/exclusion criteria and BCVA values were identical for both eyes, the right eye was selected as the study eye. Study Treatment (Group 1). […] Intravitreal injections of EYL (aflibercept) given at weeks 1, 8, 16, 24 and 32. […] Comparator Treatment (Group 2). Intravitreal injection of EYL (aflibercept) given at baseline and weeks 8, 16, 24 and 32. […] Both intraocular pressure and the perfusion of the optic nerve head were monitored and managed appropriately after injection. […] Retreatment Criteria: Subjects in both groups received retreatment (or sham) at each scheduled visit as long as continued subretinal edema, intraretinal edema or active choroidal neovascularization was present. change in edema from baseline to week 36 as measured by CST on Heidelberg OCT. change in BCVA from baseline to week 36; and number of injections required to control choroidal neovascularization based on volume of subretinal fluid.

[2] = test system: exudative AMD with persistent intraretinal or subretinal edema despite previous intravitreal anti-VEGF treatment; assay: Example 1: randomized, subject-masked trial of intravitreal sirolimus versus anti-VEGF (OCT CST and BCVA); assay type: in vivo, human; details: baseline to months 3-6, subjects who completed the study through month 6, FIG. 2 and FIG. 4
Excerpt: This study was a single-center, randomized, subject-masked trial over the course of six months with eight scheduled visits. Study Population. Thirty human patients, who were 50 years of age or older at baseline were recruited according to the following inclusion and exclusion criteria. If both eyes met all of the inclusion/exclusion criteria the eye with the worse BCVA at baseline was selected as the study eye. If both eyes met all of the inclusion/exclusion criteria and BCVA values were identical for both eyes, the right eye was selected as the study eye. Study Treatment (Group 1). […] Sham intravitreal injection given at month 1, month 3 and month 5. […] Intravitreal injection of anti-VEGF per patient/investigator choice (pegaptanib, aflibercept, bevacizumab or ranibizumab) given at baseline and thereafter monthly per clinical criteria. Sham intravitreal injections given when retreatment criterion was not met at month 1 or any later visit. […] Both intraocular pressure and the perfusion of the optic nerve head were monitored and managed appropriately after injection. […] The primary efficacy endpoint includes change in edema from baseline to month 6 as measured by CST on Heidelberg OCT. change in BCVA from baseline to month 6; Continuous variables will be summarized with means and standard deviations and medians with min and max values and categorical variables with frequencies and percentages. […]

Row | Molecule | improvement in visual acuity (BCVA) ([1]; change from baseline, FIG. 5) | average change in edema from baseline (central subfield thickness, CST, by OCT) [2] | subjects in whom the need for anti-VEGF treatment to control edema was reduced ([1]; combination group, ten patients, EYL injections deferred (sham)) [%]
1 | aflibercept [EYL] | +0.8 letters |  | 
2 | CO[C@H]1C[C@@H]2CC[C@@H](C)[C@@](O)(O2)C(=O)C(=O)N2CCCC[C@H]2C(=O)O[C@H]([C@H](C)C[C@@H]2CC[C@@H](O)[C@H](OC)C2)CC(=O)[C@H](C)/C=C(\C)[C@@H](O)[C@@H](OC)C(=O)[C@H](C)C[C@H](C)/C=C/C=C/C=C/1C [sirolimus] |  | −30 to −40 | 40
